Data on 14 molecules can be found in PubChem BioAssay (NCI).

The GI50 is the concentration giving 50% growth inhibition. One may read the TGI as the concentration at which net growth stops. Read a high TGI as lower sensitivity of the cells.

Test systems include NCI-H522 lung; T-47D breast; MDA-MB-435; NCI-H226 lung; HOP-62 NSCLC; MOLT-4 leukemia; SK-MEL-5 melanoma.
Assay in all cases: DTP human tumour cell line panel, 48 h

The structures appear in SMILES notation.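 Assay format: 96-well plates, 48-hour exposure. GI50 is the concentration that inhibits growth by half. Definition used: TGI = concentration required for complete inhibition of growth.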

`CN1CCN(Cc2ccc(NC(=O)c3cncc(C#Cc4cnc(N)c5cnccc45)c3)cc2C(F)(F)F)CC1`: the GI50 in the assay with NCI-H522 lung is 0.226 µM; with T-47D breast, 0.41 µM; in the assay with MDA-MB-435 it was 0.115 µM; in the assay on NCI-H226 lung it was 0.115 µM; in the assay with HOP-62 NSCLC, 0.233 µM; with MOLT-4 leukemia it was 0.172 µM. Besides, the GI50 with SK-MEL-5 melanoma was 0.277 µM. For the same molecule, the TGI in the assay on NCI-H522 lung came to 9.45 µM; in the assay with T-47D breast, 9.13 µM; in the assay with MDA-MB-435, 1.65 µM; in the assay on NCI-H226 lung, 4.54 µM; in the assay on HOP-62 NSCLC, 4.32 µM; with MOLT-4 leukemia it was 7.49 µM. In the assay with SK-MEL-5 melanoma, this molecule displayed a TGI of 0.952 µM.
Take `CN1CCN(Cc2cc(NC(=O)c3cccc(C#Cc4cccc5[nH]nc(N)c45)c3)cc(C(F)(F)F)c2)CC1`: the GI50 with NCI-H522 lung is 1.74 µM; with MDA-MB-435, 1.48 µM; in the assay on HOP-62 NSCLC, 1.55 µM; in the assay with SK-MEL-5 melanoma it was 1.7 µM. Further, the TGI in the assay with NCI-H522 lung was found to be 3.34 µM; with MDA-MB-435, 2.9 µM; in the assay with HOP-62 NSCLC, 3 µM; with SK-MEL-5 melanoma, 3.1 µM.
In the case of `O=[N+]([O-])c1ccc(Sc2ccncn2)c([N+](=O)[O-])c1`, the GI50 in the assay on NCI-H522 lung was 0.291 µM; in the assay with T-47D breast, 1.94 µM; in the assay on MDA-MB-435, 2.5 µM; in the assay on NCI-H226 lung, 7.22 µM; in the assay on HOP-62 NSCLC, 4.47 µM; in the assay on MOLT-4 leukemia it was 0.939 µM. Moreover, the GI50 in the assay on SK-MEL-5 melanoma is 3.27 µM. The TGI turned out to be 0.987 µM in the assay on NCI-H522 lung; 4.41 µM in the assay on T-47D breast; 8.56 µM in the assay on MDA-MB-435; 23.1 µM in the assay on NCI-H226 lung; 15.8 µM with HOP-62 NSCLC; 4.24 µM in the assay with MOLT-4 leukemia. Besides, the TGI in the assay with SK-MEL-5 melanoma stood at 11.7 µM.
`C[C@@H](Oc1cc(-n2cnc3ccc(OC[C@@H](O)CO)cc32)sc1C(N)=O)c1ccccc1Cl`: the GI50 with T-47D breast is 1.22 µM; in the assay with NCI-H226 lung it was 2.82 µM; in the assay on HOP-62 NSCLC, 0.11 µM; in the assay with MOLT-4 leukemia, 0.095 µM; with SK-MEL-5 melanoma, 0.326 µM. Further, the TGI in the assay on T-47D breast is over 25 µM; with NCI-H226 lung, over 25 µM; with HOP-62 NSCLC, over 25 µM; with MOLT-4 leukemia, 7.47 µM; in the assay on SK-MEL-5 melanoma it was 5.14 µM.
`O=C1NC(c2cccc(OCc3ccccc3)c2)Nc2ccccc21` (configuration not stated): the TGI with NCI-H522 lung was 0.636 µM; in the assay with T-47D breast, over 90.1 µM; in the assay on NCI-H226 lung, 2.44 µM; in the assay with HOP-62 NSCLC it was 26.3 µM; in the assay with MOLT-4 leukemia, 2.77 µM; with SK-MEL-5 melanoma, 1.87 µM.
Consider `c1ccc(N/N=C2\NN=C(c3ccccc3)CS2)cc1`, for which the TGI in the assay with NCI-H522 lung was 10.8 µM; in the assay with NCI-H226 lung it was over 100 µM; with HOP-62 NSCLC, over 100 µM; with MOLT-4 leukemia, 34.1 µM.
For `COCCn1cc(-c2csc(-c3c[nH]c4ccc(Br)cc34)n2)c2cccnc21`, the GI50 in the assay on NCI-H522 lung is 2.17 µM; in the assay on T-47D breast it was 1.97 µM; in the assay with MDA-MB-435, 4.12 µM; in the assay on HOP-62 NSCLC, 7.98 µM; in the assay on MOLT-4 leukemia it was 3.87 µM; with SK-MEL-5 melanoma, 3.24 µM. Further, the TGI was 6.93 µM with NCI-H522 lung; 21 µM in the assay with T-47D breast; over 100 µM with MDA-MB-435; 47.7 µM in the assay with HOP-62 NSCLC; over 100 µM in the assay with MOLT-4 leukemia; 11.7 µM with SK-MEL-5 melanoma.
On to `Fc1ccc(Nc2nc3ccccc3c3occc23)cc1`, for which the GI50 was 13.7 µM in the assay with NCI-H522 lung; 0.135 µM in the assay on T-47D breast; 4.02 µM with MDA-MB-435; 2.31 µM with HOP-62 NSCLC; 16.5 µM in the assay with SK-MEL-5 melanoma. In addition, the TGI in the assay with NCI-H522 lung was 27.8 µM; with MDA-MB-435 it was 15.6 µM; in the assay with HOP-62 NSCLC, 13.8 µM; in the assay with SK-MEL-5 melanoma it was 30.1 µM.
Take `COC1=CC(=O)c2nc(Cl)ccc2C1=O`: the GI50 was 1.7 µM in the assay on NCI-H522 lung; 1.79 µM in the assay with MDA-MB-435; 7.61 µM with NCI-H226 lung; 1.94 µM in the assay on HOP-62 NSCLC; 0.807 µM with MOLT-4 leukemia; 1.66 µM with SK-MEL-5 melanoma. Besides, the TGI was found to be 3.57 µM in the assay on NCI-H522 lung; 3.36 µM with MDA-MB-435; 21.5 µM in the assay on NCI-H226 lung; 3.4 µM in the assay with HOP-62 NSCLC; 7.77 µM in the assay on MOLT-4 leukemia; 3.02 µM with SK-MEL-5 melanoma.
For `CCCCCC[C@H](C)NC(=O)c1ccc(Nc2nc3ccccc3c3occc23)cc1`, the GI50 is 2.5 µM in the assay on NCI-H522 lung; 1.2 µM in the assay on T-47D breast; 2.9 µM with MDA-MB-435; 3.39 µM with HOP-62 NSCLC; 3.4 µM in the assay on MOLT-4 leukemia; 2.24 µM with SK-MEL-5 melanoma. Also, the TGI in the assay with NCI-H522 lung was 5.74 µM; in the assay on T-47D breast, 6.31 µM; in the assay with MDA-MB-435 it was 15.3 µM; in the assay on HOP-62 NSCLC, 12.9 µM; in the assay with MOLT-4 leukemia it was over 100 µM; with SK-MEL-5 melanoma it was 5.24 µM.
On to `COc1ccc(N(C)c2nc(Cl)nc3cnn(C)c23)cc1`, for which the GI50 in the assay with NCI-H522 lung was under 0.01 µM; in the assay with T-47D breast, under 0.01 µM; with NCI-H226 lung, under 0.01 µM; in the assay on HOP-62 NSCLC, under 0.0118 µM; in the assay with MOLT-4 leukemia it was 0.0193 µM; in the assay on SK-MEL-5 melanoma, under 0.01 µM. Also, the TGI was over 100 µM with T-47D breast; over 100 µM in the assay with NCI-H226 lung; over 100 µM in the assay on HOP-62 NSCLC; over 100 µM in the assay on MOLT-4 leukemia; 0.0874 µM with SK-MEL-5 melanoma.
Turning to `CCCCCCCC(=O)[O][Hg][CH2]C1COC([CH2][Hg][O]C(=O)CCCCCCC)CO1` (configuration not stated), the GI50 was 4.8 µM in the assay with NCI-H522 lung; 13.1 µM with T-47D breast; 12.9 µM in the assay on MDA-MB-435; 17.2 µM in the assay on HOP-62 NSCLC; 2.26 µM with MOLT-4 leukemia; 11 µM in the assay on SK-MEL-5 melanoma. Moreover, the TGI in the assay with NCI-H522 lung was over 100 µM; in the assay with T-47D breast, 46.9 µM; with MDA-MB-435, 25.8 µM; with HOP-62 NSCLC, 30.9 µM; in the assay on MOLT-4 leukemia, over 100 µM; in the assay with SK-MEL-5 melanoma, 28.8 µM.
Turning to `COc1ccc(/C=C2\c3cc(OC)c(OC)c(OC)c3CC[C@@H]2O)cc1F`, the GI50 with NCI-H522 lung was 0.156 µM; in the assay on T-47D breast, 0.36 µM; in the assay with MDA-MB-435, 0.0399 µM; in the assay on HOP-62 NSCLC, 0.245 µM; in the assay on MOLT-4 leukemia, 0.956 µM; with SK-MEL-5 melanoma, 0.234 µM. Also, the TGI in the assay on NCI-H522 lung is 0.639 µM; in the assay on T-47D breast it was over 100 µM; with MDA-MB-435, 0.235 µM; in the assay on HOP-62 NSCLC, over 100 µM; with MOLT-4 leukemia, over 100 µM; with SK-MEL-5 melanoma it was 17.2 µM.
Consider `O=[N+]([O-])c1cc2c([N+](=O)[O-])cccc2o1`, for which the TGI is 1.92 µM with NCI-H522 lung; over 100 µM in the assay with T-47D breast; 53.8 µM in the assay with MDA-MB-435; 30.4 µM in the assay with NCI-H226 lung; 37.2 µM in the assay with HOP-62 NSCLC; 33.2 µM with SK-MEL-5 melanoma.
